Measurements reported in patent US11519859B2, “Rhodol-based thallium sensors for high-throughput screening of potassium channels” (priority 2018, dated 2022).
Values joined by “and” are separate entries in the source; they are usually repeats but may differ in a detail not shown here. Equal entries are not always repeated.

Key:
[1] = Compound storage as DMSO stock solutions; format: physicochemical; details: 10 mM stock solutions in DMSO at −20° C.
Experimental: Compounds 8a-m were dissolved in DMSO and stored as 10 mM stock solutions at −20° C. […] To prevent this, dry aliquots of 8a were prepared and dissolved in DMSO immediately before use.

[2] = tested on: HEK-293 cells co-expressing GIRK1 and GIRK2; details: dye loading 1 h, 1 mM Tl^+ stimulus; for on/off (Tl^+ flux assay), maximum fold increase in fluorescence after Tl^+ addition: 10 μM ML297, 2 mM Allura Red AC, n = 6
Experimental: HEK-293 cells co-expressing GIRK1 and GIRK2 were cultured to 80% confluence in a T75 flask (Techno Plastic Products, Trasadingen, CH) at 37° C. and 5% CO2 in medium consisting of Minimal Essential Medium (Cellgro, Manassas, Va.) containing 1× Glutagro (Cellgro, Manassas, Va.) and 10% (v/v) heat-inactivated fetal bovine serum (Life Technologies, Carlsbad, Calif.). The cells were dislodged by treatment with TrypLE (Gibco/Life Technologies, Carlsbad, Calif.), diluted in medium, and plated on clear bottomed, black-walled, amine coated 384 well plates (BD Biosciences, Billerica, Mass.) at a density ˜20,000 cells per well. The plated cells were incubated overnight at 37° C. and 5% CO2 and used for the assay the next day.
Dye loading solutions of Thallos were prepared by dissolving a 25 μg aliquot in 30 μL of 6.7% Pluoronic F-127 (w/v) in DMSO and diluting the resulting solution 1:1000 into assay buffer. Culture medium was removed and replaced with 20 μL of dye loading buffer and incubated in the dark at room temperature for 1 h.
Assay—Assays were conducted on a WaveFront Biosciences Panoptic 1 or 2 (WaveFront Biosciences, Franklin, Tenn.) as indicated. Dye loading solutions were removed and replaced with assay buffer immediately before imaging unless otherwise noted. 10 s following commencement of plate imaging, 20 μL of compound at 2.5× concentration in assay buffer was added and incubated for 120 s at which point 10 μL of Tl^+ at 5× concentration in stimulus buffer (125 mM NaHCO3, 1.8 mM CaSO4, 1 mM MgSO4, 5 mM glucose, 10 mM HEPES, pH 7.4, and T12SO4), and images taken for the following 120 s.
1 mM of T12SO4 (final concentration) was used for stimulus. Assay and stimulus buffers were supplemented with 2 mM of Allura Red AC. […] On/off ratios were calculated by dividing the fluorescence intensity after saturation following Tl^+ addition by the fluorescence intensity immediately after compound addition (n=6).

[3] = Determination of photochemical properties of saponified dyes; format: physicochemical; details: for λem (fluorescence emission maximum) / λmax (absorption maximum) / ε (molar absorptivity): after saponification, 150 mM KCl, 10 mM HEPES, 50 μM EDTA, pH = 7.22; for ε (molar absorptivity): at λmax
Experimental: Evaluation of the photochemical properties of the active Thallium sensing species was accomplished by saponifying 10 μL of each pro-dye stock solution by incubating with 90 μL of 0.1 M KOH for 20 min at 37° C. with the exception of 8b which was treated with 1% NH4OH for 1 h at 37° C. The saponified compounds were diluted into 150 mM KCl buffered with 10 mM HEPES, pH=7.22 with 50 μM of EDTA. All photochemical measurements were taken in this buffer. Absorbance and fluorescence emission spectra were recorded on a Molecular Devices Spectromax M5 using polystyrene cuvettes with path length=1 cm at 23° C. Molar absorptivities are reported for λmax. The emission wavelengths monitored for recording excitation spectra, the excitation wavelengths used for recording emission spectra, and the corresponding emission cutoff filters used are listed in Table 2 below, and representative excitation and emission spectra are shown in FIG. 7.
To determine the in vitro photochemical properties of the active Tl^+ sensing species, 8a-m were treated with base to remove the acetoxymethyl esters and aryl acetate and then diluted into 10 mM HEPES buffered 150 mM KCl with 50 μM EDTA at pH=7.22.

[4] = tested on: HEK-293 cells co-expressing GIRK1 and GIRK2; assay: Fold increase in dye fluorescence in Tl+ flux assay with ML297 concentration series; format: cell-based
Source text: ML297 concentration response curves—In general, all concentration-response data were collected on a WaveFront Biosciences Panoptic 2. Thallos treated cells were imaged using 482/35 nm excitation and 536/40 nm emission filters. 8c treated cells were imaged using 529/24 nm excitation and 565/24 nm emission filters (unless otherwise noted). FluxOR Red treated cells were imaged using 544/24 nm excitation and 593/40 nm emission filters (all filters purchased from Semrock, Rochester, N.Y.). FluxOR Red reagent was prepared according to the manufacturer's procedure. 5 μM of 8c was used for dye loading for all conditions.
FluxOR Red procedure with background suppressor. The manufacturer's procedure was followed with the exceptions that the dye loading solution was replaced with 20 μL of assay buffer, solutions of ML297 were prepared in assay buffer plus background suppressor, 20 μL of compound solution was added and 10 μL stimulus buffer (basal) was added according to the general assay protocol described above.
FluxOR Red procedure without background suppressor. The FluxOR Red manufacturer's procedure was followed except the background suppressor was replaced by H2O in all buffers.
Bicarbonate buffer with Allura Red AC. […]
The fluorescence intensity values of the first 6 time points for each well were averaged and the fluorescence intensity for all time points in the well was divided by this value to provide F/Fo for each time point. The average F/Fo of the vehicle control was then subtracted from each curve and the normalized, control subtracted fluorescence intensity value was sampled at a time point several seconds after Tl^+ addition. […] Fold increases in fluorescence reported in the main paper were calculated by averaging F/Fo between 100 and 110 s after Tl^+ addition. […]
The performance of 8c was evaluated in a Tl^+ flux assay to generate a concentration response curve (CRC) of the GIRK activator ML297. […] Normalized, control subtracted fluorescence intensity values were sampled along the curves following Tl^+ addition at each concentration and a CRC was fit using GraphPad Prism (FIG. 3B).

| Structure (SMILES) | stability on storage [1] | on/off (Tl^+ flux assay), maximum fold increase in fluorescence after Tl^+ addition [2] | λem (fluorescence emission maximum) [3] [nm] | λmax (absorption maximum) [3] [nm] | ε (molar absorptivity) [3] [M⁻¹ cm⁻¹] | fold increase in fluorescence at the highest ML297 concentration ([4]; FluxOR Red kit procedure with background suppressor, 10 μM ML297, F/Fo 100-110 s after Tl^+) [fold] | fold increase in fluorescence at the highest ML297 concentration ([4]; FluxOR Red kit procedure without background suppressor) [fold] | fold increase in fluorescence ([4]; bicarbonate stimulus buffer, 500 μM Tl^+, no-wash, 1 mM Allura Red AC) [fold] | fluorescence and response to Tl^+ in cells (in words) [2] | fluorescence of saponified dye (in words) ([3]; reason why spectra were not recorded) |
| --- | --- | --- | --- | --- | --- | --- | --- | --- | --- | --- |
| COc1cc(NC(=O)c2ccc3c(c2)C(=O)OC32c3ccc(N)cc3Oc3cc(OC(C)=O)ccc32)ccc1N(CC(=O)OCOC(C)=O)CC(=O)OCOC(C)=O (stereo not shown) [Compound 8a, bis(acetoxymethyl) 2,2′-((4-(3′-acetoxy-6′-amino-3-oxo-3H-spiro[isobenzofuran-1,9′-xanthen]-5-ylcarboxamido)-2-methoxyphenyl)azanediyl)diacetate] | appeared to undergo transacetylation | 3.02 ± 0.08 fold | 520 | 496 | 57000 | – | – | – | – | – |
| COc1cc(NC(=O)c2ccc3c(c2)C(=O)OC32c3ccc(OC(C)=O)cc3Oc3cc(N(C)C)ccc32)ccc1N(CC(=O)OCOC(C)=O)CC(=O)OCOC(C)=O (stereo not shown) [Compound 8c, bis(acetoxymethyl) 2,2′-((4-(3′-acetoxy-6′-(dimethylamino)-3-oxo-3H-spiro[isobenzofuran-1,9′-xanthene]-5-carboxamido)-2-methoxyphenyl)azanediyl)diacetate] | – | 4.21 fold and 4.21 ± 0.04 fold | 551 | 521 | 56000 | 3.09±0.004 | 2.87±0.004 | 3.40±0.009 | – | – |
| COc1cc(NC(=O)c2ccc3c(c2)C(=O)OC32c3ccc(Nc4ccccc4)cc3Oc3cc(OC(C)=O)ccc32)ccc1N(CC(=O)OCOC(C)=O)CC(=O)OCOC(C)=O (stereo not shown) [Compound 8i, bis(acetoxymethyl) 2,2′-((4-(3′-acetoxy-3-oxo-6′-(phenylamino)-3H-spiro[isobenzofuran-1,9′-xanthen]-5-ylcarboxamido)-2-methoxyphenyl)azanediyl)diacetate] | – | 1.07 ± 0.01 fold | – | 517 | 52000 | – | – | – | minor increase in fluorescence | very weak fluorescence |
| COc1cc(NC(=O)c2ccc3c(c2)C(=O)OC32c3ccc(OC(C)=O)cc3Oc3cc(N4CCC4)ccc32)ccc1N(CC(=O)OCOC(C)=O)CC(=O)OCOC(C)=O (stereo not shown) [Compound 8j, bis(acetoxymethyl) 2,2′-((4-(3′-acetoxy-6′-(azetidin-1-yl)-3-oxo-3H-spiro[isobenzofuran-1,9′-xanthen]-5-ylcarboxamido)-2-methoxyphenyl)azanediyl)diacetate] | – | 3.92 ± 0.13 fold | 550 | 522 | 56000 | – | – | – | – | – |
| COc1cc(NC(=O)c2ccc3c(c2)C(=O)OC32c3ccc(OC(C)=O)cc3Oc3cc(N4CC(F)(F)C4)ccc32)ccc1N(CC(=O)OCOC(C)=O)CC(=O)OCOC(C)=O (stereo not shown) [Compound 8k, bis(acetoxymethyl) 2,2′-((4-(3′-acetoxy-6′-(3,3-difluoroazetidin-1-yl)-3-oxo-3H-spiro[isobenzofuran-1,9′-xanthen]-5-ylcarboxamido)-2-methoxyphenyl)azanediyl)diacetate] | – | 2.02 ± 0.04 fold | 530 | 506 | 66000 | – | – | – | almost half the response to Tl^+ | – |
| COc1cc(NC(=O)c2ccc3c(c2)C(=O)OC32c3ccc(OC(C)=O)cc3Oc3cc(N4CCCC4)ccc32)ccc1N(CC(=O)OCOC(C)=O)CC(=O)OCOC(C)=O (stereo not shown) [Compound 8l, bis(acetoxymethyl) 2,2′-((4-(3′-acetoxy-3-oxo-6′-(pyrrolidin-1-yl)-3H-spiro[isobenzofuran-1,9′-xanthen]-5-ylcarboxamido)-2-methoxyphenyl)azanediyl)diacetate] | – | 3.54 ± 0.07 fold | 553 | 525 | 39000 | – | – | – | – | – |
| COc1cc(NC(=O)c2ccc3c(c2)C(=O)OC32c3ccc(OC(C)=O)cc3Oc3cc(N4CCCCC4)ccc32)ccc1N(CC(=O)OCOC(C)=O)CC(=O)OCOC(C)=O (stereo not shown) [Compound 8m, bis(acetoxymethyl) 2,2′-((4-(3′-acetoxy-3-oxo-6′-(piperidin-1-yl)-3H-spiro[isobenzofuran-1,9′-xanthen]-5-ylcarboxamido)-2-methoxyphenyl)azanediyl)diacetate] | – | 3.09 ± 0.04 fold | 557 | 526 | 48000 | – | – | – | – | – |
